Laboratory results from patent publication US20020137704A1, “Methods of inhibiting host-cell mediated viral replication” (priority 2000, published 2002).

Columns and labels:
[1] = test system: HIV-2 LTR; experiment: HIV-2 enhancer CAT reporter assay in transfected U937 cells; assay type: cell-based, Human
Protocol: Cell Culture. Human U937 monocytic cells were maintained in RPMI 1640 medium containing 10% fetal bovine serum (GibcoBRL), penicillin (50 units/ml), streptomycin (50 μg/ml), and L-glutamine (2 mM).
Phosphatase Inhibition. […]
Transfections. 5 μg of CAT reporter construct, pCMV5 PP2Ac, and the empty pCMV5 vector were combined to yield 25 μg total DNA. U937 undergoing logarithmic growth were harvested at 5×10^5 cells/ml and resuspended at 25×10^6 cells/ml in RPMI 1640 media. 10^7 cells (0.4 ml) were aliquoted to 0.4 cm electroporation cuvettes (Invitrogen) and incubated with the appropriate DNA mixture for 5 min at room temperature. The cells were then electroporated using Invitrogen's Electroporator II at a setting of 330 V, 1000 μF, and infinite resistance with an input voltage of approximately 325 V. Following electroporation, the cells from each cotransfection were evenly split ([…]) and placed in separate tissue culture plates in 5 ml of RPMI1640 media+10% FBS. After a period of 12-16 hrs, one group of cells was left untreated while the other received 32 nM TPA for 24 hrs. The cells were then harvested, washed with PBS, and lysed in 0.25 M Tris-HCl (pH 7.5). Protein levels of the lysates were determined by BioRad's colorimetric protein assay (BioRad).
Chloramphenicol Acetyl Transferase (CAT) Assay. For CAT assays, 5-30 μl of cell lysate was combined with 20 μl of 100 mM Tris-HCl (pH 7.5). The final volume was increased to 50 μl with lysis buffer, if necessary, and the mixture incubated for 15 min at 65° C. to inactivate endogenous acetyltransferases. The lysates were then transferred to 7 ml scintillation vials and 200 μl CAT reaction mixture (125 mM Tris-HCl, 1.25 mM chloramphenicol, 0.1 μCi ^3H-acetyl CoA) added. Five ml of Econofluor (Fisher Scientific) scintillation fluid was overlaid and the reaction incubated for 15-90 min before counting. Background and total counts were determined by mixing 200 μl CAT reaction mixture with 5 ml of Econfluor or Scintiverse (Fisher Scientific) respectively. CAT activity was background subtracted and normalized for total amount of protein used.
To test the possibility that PP2A is involved in the activation of the HIV-2 LTR and that PP2A may act on the HIV-2 LTR through the pets site, U937 cells were transfected with an HIV-2 enhancer CAT reporter alone or with pCMV5 PP2Ac, a plasmid encoding the catalytic domain of PP2A. After transfection, cells from each condition were split into an untreated control sample, to assess the baseline effects of PP2A, or a sample that received 32 nM 12-O-tetradecanoyl phorbol-13-acetate (TPA) for 24 hrs. […]

[2] = test system: U1 cells; experiment: Cellular viability of U1 cells treated with FST; assay type: cell-based
Protocol: The cellular viability was >100% for 10 μM FST compared to no treatment and 76.3% for 10 μM FST and PMA compared with PMA alone.

[3] = test system: HIV-1; conditions: U1 cells; for inhibition of PMA-stimulated HIV-1 replication: RT assay
[4] = test system: HIV-1 LTR; conditions: literature reports; cited from earlier work

SMILES | increase in CAT activity above baseline ([1]; 32 nM TPA, absence of ectopic PP2Ac, U937 cells, HIV-2 CAT reporter) [fold] | cellular viability compared to no treatment ([2]; 10 μM FST) [%] | cellular viability compared with PMA alone ([2]; 10 μM FST and PMA) [%] | effect of treatment on cellular viability ([2]; treatment with FST) | reversal of PMA stimulation of HIV-1 replication ([3]; 10 μM, PMA 32 nM) | inhibition of PMA-stimulated HIV-1 replication ([3]; PMA 32 nM) | effect on synergy between PP2Ac and TPA in activating HIV-2 enhancer CAT reporter ([1]; 5 μg pCMV5 PP2Ac plus TPA, OKA 50-400 nM) | effect of OKA on CAT activity of TPA-treated cells ([1]; OKA 50-400 nM pretreatment 30 min prior to TPA, U937 cells) | maximal increase in CAT reporter activity ([1]; OKA alone for 18 hrs, maximal activity at 200 nM, U937 cells) [fold] | concentration dependence of inhibition of replication ([3]; PMA 32 nM, from 50 nM to 200 nM) | inhibition of HIV-1 replication in the absence of PMA ([3]; no PMA) | effect on the HIV-1 LTR [4]
CCCCCCCCCCCCCC(=O)O[C@@H]1[C@@H](C)[C@@]2(O)[C@@H](C=C(CO)C[C@]3(O)C(=O)C(C)=C[C@@H]23)[C@@H]2C(C)(C)[C@]12OC(C)=O [TPA, 12-O-tetradecanoyl phorbol-13-acetate] | 148 | – | – | – | – | – | – | – | – | – | – | –
C[C@@](O)(/C=C/[C@H]1CC=CC(=O)O1)[C@@H](C[C@@H](O)\C=C/C=C\C=C\CO)OP(=O)(O)O [fostreicin] | – | > 100 | 76.3 | minimally affected | totally reversed PMA stimulation of HIV-1 replication | inhibit PMA-stimulated HIV-1 replication | – | – | – | – | – | –
C=C1[C@@H](O)[C@@H]2O[C@]3(CC[C@H](/C=C/[C@@H](C)[C@@H]4CC(C)=C[C@@]5(O[C@H](C[C@@](C)(O)C(=O)O)CC[C@H]5O)O4)O3)CC[C@H]2O[C@@H]1[C@@H](O)C[C@H](C)[C@H]1O[C@@]2(CCCCO2)CC[C@H]1C [okadaic acid] | – | – | – | – | – | inhibit PMA-stimulated HIV-1 replication | significantly reduced in a dose dependent manner | decrease in CAT activity | 150 | inhibited replication in a concentration dependent manner | no inhibition | activate the HIV-1 LTR
